Assay results from US7629447B2, “Dideoxynucleoside derivatives” (Wako Pure Chemical Industries, Ltd., priority 2006, dated 2009).
[5NF] = 5'-amino-2'-fluoro-2',5'-dideoxyuridine unit, linked through its 5'-amino group; d = 2'-deoxy (DNA)

Columns and labels:
[1] = test system: complementary DNA oligonucleotide (SEQ ID NO:7 or SEQ ID NO:8); assay: Thermal stability test, measurement of Tm (DNA/DNA match duplex); type: binding; details: for Tm of the duplex DNA/DNA compared with that of T-1 (control) and T-2 (control), in words: versus oligonucleotides of only naturally occurring nucleosides; for Tm of the duplex DNA/DNA compared with that of T-1 (control) and T-2 (control), in words / Tm / ΔTm: duplex DNA/DNA; for Tm: 3 μM each oligonucleotide, 10 mM sodium phosphate buffer, 100 mM sodium chloride, pH 7.0, 20 to 90° C. at 0.5° C. per minute, absorbance at 260 nm; for ΔTm: difference from the matching control (T-1 or T-2)
Excerpt: Using commercially available dT-CE phosphoramidite and dA-CE phosphoramidite (both of them were produced by Glen research Corp.) as materials, also using 3′-dT-CPG (1 μmol) packed in a column (produced by Glen research Corp.) as a starting material, oligonucleotides were synthesized according to the same method as in Example 2, in order to obtain oligonucleotides which were each complementary to UNF-1 and UNF-2 obtained in Example 2, respectively. The base sequences of oligonucleotides complementary to UNF-1 (SEQ ID NO:7) and complementary to UNF-2 (SEQ ID NO:8) are shown in Table 2 below.
Using UNF-1 and UNF-2, which were synthesized in Example 2, and complementary oligonucleotides thereto shown in Table 2 as materials, duplexes DNA/DNA were prepared according to the conventional method (R. Kierzek et al., Biochemistry, 1986, vol. 25, pp. 7840-7846).
Using the obtained duplex DNA/DNA, thermal stability test was carried out according to the conventional method.
(§1) That is, using a UV-2450 SPECTROPHOTOMETER equipped with a temperature-variable device (produced by Shimadzu Corp.), the oligonucleotides were placed in 8 consecutive 10 mm cells under the nitrogen atmosphere, and 10 mM of sodium phosphate buffer and 100 mM of sodium chloride (pH 7.0) were added thereto so that the concentration of each oligonucleotide became 3 μM, then the temperature was increased from 20° C. to 90° C. with a climbing rate of 0.5° C. per minute, and absorbance at 260 nm were measured.
(§2) A duplex DNA/DNA formed between TN-1 synthesized in Comparative Example 2 and a complementary oligonucleotide thereto represented by SEQ ID NO:7, and a duplex formed DNA/DNA between TN-2 synthesized in Comparative Example 2 and a complementary oligonucleotide thereto represented by SEQ ID NO:8 were synthesized according to the same method as in Example 3. The thermal stability of these duplex nucleic acids obtained was examined according to the same method as in Example 3.
as §2, with “In addition, a duplex” for “A duplex”, “between T-1 (control)” for “between TN-1”, “duplex DNA” for “duplex formed DNA/DNA”, “between T-2 (control)” for “between TN-2”, “3. Thermal” for “3. The thermal”, “3. The results were shown together in FIG. 1.” for “3.”

[2] = test system: complementary RNA oligonucleotide (SEQ ID NO:9 or SEQ ID NO:10); assay: Thermal stability test, measurement of Tm (DNA/RNA match duplex); type: binding; details: for Tm of the duplex DNA/RNA compared with that of T-1 (control) and T-2 (control), in words: versus oligonucleotides of only naturally occurring nucleosides; for Tm of the duplex DNA/RNA compared with that of T-1 (control) and T-2 (control), in words / ΔTm / Tm: duplex DNA/RNA; for ΔTm: difference from the matching control (T-1 or T-2); for Tm: same method as Example 3 (3 μM, 10 mM sodium phosphate buffer, 100 mM sodium chloride, pH 7.0)
Experimental: as §1
Using commercially available rA-CE phosphoramidite, rU-CE phosphoramidite and rC-CE phosphoramidite as materials, also using 3′-dU-CPG (all of them were produced by Glen research Corp.) as a starting material, complementary oligonucleotides to each of UNF-1 and UNF-2 which were prepared in Example 2, were synthesized according to the same method as in Example 2.
Using UNF-1 and UNF-2, which were synthesized in Example 2, and the complementary oligonucleotides thereto shown in Table 2 as materials, a duplex DNA/RNA was prepared according to the conventional method (R. Kierzek et al., Biochemistry, 1986, vol. 25, pp. 7840-7846).
Using the obtained duplexes DNA/RNA, thermal stability test was carried out according to the same method as in Example 3.
A duplex DNA/RNA formed between TN-1 synthesized in Comparative Example 2 and a complementary oligonucleotide thereto represented by SEQ ID NO:9, and a duplex DNA/RNA formed between TN-2 synthesized in Comparative Example 2 and a complementary oligonucleotide thereto represented by SEQ ID NO:10 were synthesized according to the same method as in Example 4. Thermal stabilities of these duplex nucleic acids obtained were examined according to the same method as in Example 4.
In addition, a duplex DNA/RNA formed between T-1 (control) synthesized in Comparative Example 2 and a complementary oligonucleotide thereto represented by SEQ ID NO:9, and a duplex DNA formed between T-2 (control) synthesized in Comparative Example 2 and a complementary oligonucleotide thereto represented by SEQ ID NO:10 were synthesized according to the same method as in […]. Thermal stabilities of these duplex nucleic acids obtained were examined according to the same method as in Example 4.

TN-1: SEQ ID NO:3, 5′-(AAG GAA AT^NG AGG AAA GA)-3′; T^N = introduced 5′-aminothymidine (comparative) (AAGGAAANGAGGAAAGA; 5'-aminothymidine, chemistry not fully specified)
Tm of the duplex DNA/DNA compared with that of T-1 (control) and T-2 (control), in words [1]: lower
Tm [1]: 50.6 °C
ΔTm [1]: −2.3
Tm of the duplex DNA/RNA compared with that of T-1 (control) and T-2 (control), in words [2]: lower
ΔTm [2]: −4.4
Tm [2]: 37.7 °C

T-2 (control): SEQ ID NO:6, 5′-d(AAG GAA TTG AGG AAA GA)-3′; oligonucleotide comprising only naturally occurring nucleosides (AAGGAATTGAGGAAAGA; unmodified DNA)
Tm [1]: 53.5 °C
Tm [2]: 44 °C

TN-2: SEQ ID NO:4, 5′-(AAG GAA T^NT^NG AGG AAA GA)-3′; T^N = introduced 5′-aminothymidine (comparative) (AAGGAANNGAGGAAAGA; 5'-aminothymidines, chemistry not fully specified)
Tm of the duplex DNA/DNA compared with that of T-1 (control) and T-2 (control), in words [1]: lower
Tm [1]: 48.3 °C
ΔTm [1]: −5.2
Tm of the duplex DNA/RNA compared with that of T-1 (control) and T-2 (control), in words [2]: lower
ΔTm [2]: −5.0
Tm [2]: 39 °C

UNF-2: SEQ ID NO:2, 5′-(AAG GAA U^NFU^NFG AGG AAA GA)-3′; U^NF = introduced 5′-amino-2′-fluoro-2′,5′-dideoxyuridine (AAGGAAUUGAGGAAAGA; sugars from the 5' end d6 [5NF]2 d9, backbone not given here)
Tm compared with that of UNF-1, in words ([1]; duplex DNA/DNA (Table 3), two UNFs versus one UNF): higher
Tm of the duplex DNA/DNA compared with that of T-1 (control) and T-2 (control), in words [1]: equivalent
Tm [1]: 52.1 °C
ΔTm [1]: −1.4
Tm compared with that of UNF-1, in words ([2]; duplex DNA/RNA (Table 5), two UNFs versus one UNF): higher
Tm of the duplex DNA/RNA compared with that of T-1 (control) and T-2 (control), in words [2]: equivalent
ΔTm [2]: −0.5
Tm [2]: 43.5 °C

T-1 (control): SEQ ID NO:5, 5′-d(AAG GAA ATG AGG AAA GA)-3′; oligonucleotide comprising only naturally occurring nucleosides (AAGGAAATGAGGAAAGA; unmodified DNA)
Tm [1]: 52.9 °C
Tm [2]: 42.1 °C

UNF-1: SEQ ID NO:1, 5′-(AAG GAA AU^NFG AGG AAA GA)-3′; U^NF = introduced 5′-amino-2′-fluoro-2′,5′-dideoxyuridine (AAGGAAAUGAGGAAAGA; sugars from the 5' end d7 [5NF]1 d9, backbone not given here)
Tm of the duplex DNA/DNA compared with that of T-1 (control) and T-2 (control), in words [1]: equivalent
Tm [1]: 51.8 °C
ΔTm [1]: −1.1
Tm of the duplex DNA/RNA compared with that of T-1 (control) and T-2 (control), in words [2]: equivalent
ΔTm [2]: −0.2
Tm [2]: 41.9 °C
